Patent publication US7034040B2, “Fluorinated heterocyclic compounds and methods of synthesis” (R.T. Alamo Ventures I, priority 2002, dated 2006)

Key:
[1] = tested on: Protein Serine/Threonine Kinase PKC, Non-Selective; experiment: Protein serine/threonine kinase PKC, non-selective, enzyme assay; format: biochemical; conditions: rat brain enzyme
From the text: In this example, monofluoroflosequinan was subjected to biochemical enzyme assays and radioligand binding assays to determine its percent inhibition of a variety of enzyme activities and its percent inhibition of specific binding. The methods used have been adapted from those described in the scientific literature, see Hidaka and Asano “Human blood platelet 3′:5′ cyclic nucleotide phosphodiesterase. Isolation of low-Km and high Km phosphodiesterase.” Biochem. Biophys. Acta 429:485 (1976); Nicholoson et al. “Differential modulation of tissue function and therapeutic potential of selective inhibitors of cyclic nucleotide phosphodiesterase isoenzymes” Trends Pharmacol. Sci. 12:19 (1991); Cortijo et al. “Investigation into the role of phosphodiesterase IV in bronchorelaxation, including studies with hyman bronchus.” Br. J Pharmacol. 108:562 (1993); Baehr et al. “Isolation and characterization of cGMP phosphodiesterase from bovine rod outer segments.” J. Biol. Chem. 254:11669 (1979), Gillespie and Beavo “Inhibition and stimulation of photoreceptor phosphodiesterase by dipyridamole and M&B 22,948” Molecular Pharm. 36:773 (1989); Tamaoki and Nakano “Potent and specific inhibitors of protein kinase C of microbial origin” Biotechnology 8:732 (1990); Wilkinson et al. “Isoenzyme specificity of bisindolymaleimides, selective inhibitors of protein kinase C” Biochem. J 294:335 (1993); Tamaki et al. “Staurosporine, a potent inhibitor of phospholipid/Ca++dependent protein kinase” Biochem. Biophys. Res. Comm, 135:397 (1986); Schoemaker and Langer “[3H]Diltiazem binding to calcium channel antagonist recognition sites in rate cerebral cortex” Eur. J Pharmacol. 111:273 (1985); Ehlert et al. “The binding of [3H]nitrendipine to receptors for calcium channel antagonists in the heart, cerebral cortex and ileum of rats.” Life Sci. 30:2191 (1982); Gould et al. “[3H]nitrendipine-labeled calcium channels discriminate inorganic calcium agonists and antagonists” Proc. Natl. Acad. Sci. USA 79:3656 (1982); Reynolds et al. “(−)−[3H]Desmethoxyverapamil labels multiple calcium channel modulator receptors in brain and skeletal muscle membranes: Differentiation by temperature and dihydropyridines” J Pharmacol. Exp. Ther. 237:731 (1986) and Worley et al. “Characterization of inositol triphosphate receptor binding in brain. Regulation by pH and calcium” J Biol. Chem. 262:12132 (1987). A brief summary of the conditions for each assay is provided below:
Protein Serine/Threonine Kinase PKC, Non-Selective: The enzyme was obtained from rat brain and the substrate was 370 μg/ml histone. The reaction was pre-incubated 5 min at 25° C., followed by a 15 min incubation at 25° C. in a buffer of 20 mM Tris-HCl, 10 mM MgCl2.Ho and 0.1 mM CaCl2.2HO, pH 7.4. [^32P]histone was quantitated.

PDE4 = PDE4 enzyme inhibition assay; format: biochemical; conditions: 1000 μM compound, 1% DMSO vehicle, human U-937 cell enzyme
From the text: (§1) In this example, monofluoroflosequinan was subjected to biochemical enzyme assays and radioligand binding assays to determine its percent inhibition of a variety of enzyme activities and its percent inhibition of specific binding. The methods used have been adapted from those described in the scientific literature, see Hidaka and Asano “Human blood platelet 3′:5′ cyclic nucleotide phosphodiesterase. Isolation of low-Km and high Km phosphodiesterase.” Biochem. Biophys. Acta 429:485 (1976); Nicholoson et al. “Differential modulation of tissue function and therapeutic potential of selective inhibitors of cyclic nucleotide phosphodiesterase isoenzymes” Trends Pharmacol. Sci. 12:19 (1991); Cortijo et al. “Investigation into the role of phosphodiesterase IV in bronchorelaxation, including studies with hyman bronchus.” Br. J Pharmacol. 108:562 (1993); Baehr et al. “Isolation and characterization of cGMP phosphodiesterase from bovine rod outer segments.” J. Biol. Chem. 254:11669 (1979), Gillespie and Beavo “Inhibition and stimulation of photoreceptor phosphodiesterase by dipyridamole and M&B 22,948” Molecular Pharm. […]
PDE4: PDE4 partially purified from human U-937 pronocytic cells was used. […] Unhydrolyzed cAMP was bound to AGI-X2 resin, and the remaining [^3H]adenosine in the aqueous phase was quantitated by scintillation counting.

PDE3 = target: T1, PDE3 (Homo sapiens, UniProt Q14432); experiment: PDE3 enzyme inhibition assay; format: biochemical; conditions: 1000 μM compound, 1% DMSO vehicle, human platelet enzyme
T1 construct: PDE3 partially purified from human platelets was used; from tissue; host or cells: human platelets
From the text: as §1
PDE3: PDE3 partially purified from human platelets was used. […] Unhydrolyzed cAMP was bound to AGI-X2 resin, and the remaining [^3H]adenosine in the aqueous phase was quantitated by scintillation counting.

PDE1 = PDE1 enzyme inhibition assay; format: biochemical; conditions: 1000 μM compound, 1% DMSO vehicle, bovine heart enzyme
From the text: as §1
PDE1: PDE1 partially purified from bovine heart was used. […] Unhydrolyzed cAMP was bound to AGI-X2 resin, and the remaining [^3H]adenosine in the aqueous phase was quantitated by scintillation counting.

[2] = target: Calcium Channel Type L, Dihydropyridine; conditions: Wistar rat cerebral cortex, 90 min at 25° C.; read-out: Kd (historical value of the radioligand); cited from earlier work

T1 sequence (Q14432 whole entry): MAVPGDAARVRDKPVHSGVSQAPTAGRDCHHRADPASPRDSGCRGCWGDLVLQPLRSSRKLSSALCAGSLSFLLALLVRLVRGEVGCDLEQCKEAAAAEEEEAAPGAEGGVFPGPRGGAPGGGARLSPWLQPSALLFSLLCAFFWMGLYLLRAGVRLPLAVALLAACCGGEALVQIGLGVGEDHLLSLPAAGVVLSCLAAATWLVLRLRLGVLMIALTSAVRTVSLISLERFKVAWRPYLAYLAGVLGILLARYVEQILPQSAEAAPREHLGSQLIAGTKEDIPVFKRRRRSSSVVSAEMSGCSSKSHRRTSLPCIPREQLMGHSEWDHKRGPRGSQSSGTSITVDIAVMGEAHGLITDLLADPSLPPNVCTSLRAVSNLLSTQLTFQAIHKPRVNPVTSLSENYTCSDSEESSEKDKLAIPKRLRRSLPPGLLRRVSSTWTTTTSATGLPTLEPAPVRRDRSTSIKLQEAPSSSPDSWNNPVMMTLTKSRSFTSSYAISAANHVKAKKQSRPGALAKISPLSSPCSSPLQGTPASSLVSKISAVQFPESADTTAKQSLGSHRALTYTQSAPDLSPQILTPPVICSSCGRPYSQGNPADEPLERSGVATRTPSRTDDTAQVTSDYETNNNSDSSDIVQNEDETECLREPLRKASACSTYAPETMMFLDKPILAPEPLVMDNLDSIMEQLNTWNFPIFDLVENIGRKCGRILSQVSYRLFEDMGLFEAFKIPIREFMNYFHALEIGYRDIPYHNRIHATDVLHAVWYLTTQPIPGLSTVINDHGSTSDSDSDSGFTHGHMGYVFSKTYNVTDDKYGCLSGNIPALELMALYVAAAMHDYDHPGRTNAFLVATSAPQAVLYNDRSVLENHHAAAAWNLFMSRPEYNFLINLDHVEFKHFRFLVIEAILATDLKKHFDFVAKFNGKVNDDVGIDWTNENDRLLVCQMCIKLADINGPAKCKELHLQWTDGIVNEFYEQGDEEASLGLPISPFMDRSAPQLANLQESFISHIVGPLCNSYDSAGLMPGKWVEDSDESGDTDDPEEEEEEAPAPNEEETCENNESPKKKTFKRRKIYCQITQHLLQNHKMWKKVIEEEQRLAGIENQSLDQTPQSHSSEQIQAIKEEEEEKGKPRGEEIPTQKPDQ

Cn1cc([S+]([O-])CF)c(=O)c2ccc(F)cc21 (racemic) [monofluoroflosequinan, 7-fluoro-3-fluoromethylsulfinyl-1-methyl-4-quinolone]
inhibition of protein serine/threonine kinase, PKC, non-selective ([1]; 100 μM compound): Significant inhibition
inhibition of protein serine/threonine kinase, PKC, non-selective ([1]; 300 μM compound): Significant inhibition
inhibition of protein serine/threonine kinase, PKC, non-selective ([1]; 1000 μM compound, 1% DMSO vehicle): Significant inhibition

Cn1cc(S(=O)(=O)C(F)F)c(=O)c2ccc(F)cc21 [3-difluoromethylsulfonyl-7-fluoro-1-methyl-4-quinolone]
inhibition of PDE4 (PDE4): greater than 50%
inhibition at 1000 µM (PDE3): > 50%
inhibition of PDE1 (PDE1): greater than 50%

CCOC(=O)C1=C(C)NC(C)=C(C(=O)OC)C1c1cccc([N+](=O)[O-])c1 (stereo not shown) [^3H Nitrendipine]
Kd [2]: 0.18 nM

Cn1cc([S+]([O-])C(F)F)c(=O)c2ccc(F)cc21 (stereo not shown) [difluoroflosequinan, 3-difluoromethylsulfinyl-7-fluoro-1-methyl-4-quinolone]
inhibition of protein serine/threonine kinase, PKC, non-selective ([1]; 1000 μM compound): greater than 50%
inhibition at 1000 µM (PDE3): > 50%
inhibition of PDE1 (PDE1): greater than 50%
